This passage reports Activity, EC50 and Ki results from ChEMBL document CHEMBL5356990, “Overview of CFTR activators and their recent studies for dry eye disease: a review” (RSC Med Chem, 2023).

pEC50, pKi: −log10 of the molar value.

The nature of assay [1]: (§1) In vivo activation CFTR expressed in wild-type CD1 mouse assessed as hyperpolarization of ocular surface by measuring potential difference at 1 to 10 uM. It is filed as functional. As to conditions: dose 1-10 µM.
The target of assay [2] is T1, Cystic fibrosis transmembrane conductance regulator (Homo sapiens, UniProt P13569). The experiment in a line: Activation of human CFTR expressed in rat FRT cells. In kind it is cell-based.
Assay [3] has as its target T1, Cystic fibrosis transmembrane conductance regulator. As to the kind of experiment: Activation of human wildtype CFTR expressed in rat FRT cells by patch clamp analysis. It is filed as cell-based. (In patch-clamp work, channel activity is measured electrically.)
Assay [4] has the same target. The experiment in a line: Activation of wildtype CFTR (unknown origin) expressed in CHO cells. In kind it is cell-based.
Assay [5] shares this target. The experiment in a line: Activation of wildtype CFTR in human Calu-3 cells. It is filed as cell-based.
For assay [6], the system named is Cystic fibrosis transmembrane conductance regulator (Homo sapiens), P13569 [G551D]. The experiment in a line: Activation of CFTR G551D mutant (unknown origin). As to conditions: filed as opener.
The subject of a further assay is Mus musculus. Described as §1. In kind it is functional. To be noted: dose 1-10 µM.
Assay [7] addresses T1, Cystic fibrosis transmembrane conductance regulator. As to the kind of experiment: Activation of CFTR (unknown origin).
For assay [8] the target is unchanged. The experiment in a line: Binding affinity at human wildtype CFTR assessed as inhibition constant by fluorescence based analysis.
The target is the same in assay [9]. As to the kind of experiment: Activation of human wildtype CFTR.

T1 sequence (P13569 whole entry): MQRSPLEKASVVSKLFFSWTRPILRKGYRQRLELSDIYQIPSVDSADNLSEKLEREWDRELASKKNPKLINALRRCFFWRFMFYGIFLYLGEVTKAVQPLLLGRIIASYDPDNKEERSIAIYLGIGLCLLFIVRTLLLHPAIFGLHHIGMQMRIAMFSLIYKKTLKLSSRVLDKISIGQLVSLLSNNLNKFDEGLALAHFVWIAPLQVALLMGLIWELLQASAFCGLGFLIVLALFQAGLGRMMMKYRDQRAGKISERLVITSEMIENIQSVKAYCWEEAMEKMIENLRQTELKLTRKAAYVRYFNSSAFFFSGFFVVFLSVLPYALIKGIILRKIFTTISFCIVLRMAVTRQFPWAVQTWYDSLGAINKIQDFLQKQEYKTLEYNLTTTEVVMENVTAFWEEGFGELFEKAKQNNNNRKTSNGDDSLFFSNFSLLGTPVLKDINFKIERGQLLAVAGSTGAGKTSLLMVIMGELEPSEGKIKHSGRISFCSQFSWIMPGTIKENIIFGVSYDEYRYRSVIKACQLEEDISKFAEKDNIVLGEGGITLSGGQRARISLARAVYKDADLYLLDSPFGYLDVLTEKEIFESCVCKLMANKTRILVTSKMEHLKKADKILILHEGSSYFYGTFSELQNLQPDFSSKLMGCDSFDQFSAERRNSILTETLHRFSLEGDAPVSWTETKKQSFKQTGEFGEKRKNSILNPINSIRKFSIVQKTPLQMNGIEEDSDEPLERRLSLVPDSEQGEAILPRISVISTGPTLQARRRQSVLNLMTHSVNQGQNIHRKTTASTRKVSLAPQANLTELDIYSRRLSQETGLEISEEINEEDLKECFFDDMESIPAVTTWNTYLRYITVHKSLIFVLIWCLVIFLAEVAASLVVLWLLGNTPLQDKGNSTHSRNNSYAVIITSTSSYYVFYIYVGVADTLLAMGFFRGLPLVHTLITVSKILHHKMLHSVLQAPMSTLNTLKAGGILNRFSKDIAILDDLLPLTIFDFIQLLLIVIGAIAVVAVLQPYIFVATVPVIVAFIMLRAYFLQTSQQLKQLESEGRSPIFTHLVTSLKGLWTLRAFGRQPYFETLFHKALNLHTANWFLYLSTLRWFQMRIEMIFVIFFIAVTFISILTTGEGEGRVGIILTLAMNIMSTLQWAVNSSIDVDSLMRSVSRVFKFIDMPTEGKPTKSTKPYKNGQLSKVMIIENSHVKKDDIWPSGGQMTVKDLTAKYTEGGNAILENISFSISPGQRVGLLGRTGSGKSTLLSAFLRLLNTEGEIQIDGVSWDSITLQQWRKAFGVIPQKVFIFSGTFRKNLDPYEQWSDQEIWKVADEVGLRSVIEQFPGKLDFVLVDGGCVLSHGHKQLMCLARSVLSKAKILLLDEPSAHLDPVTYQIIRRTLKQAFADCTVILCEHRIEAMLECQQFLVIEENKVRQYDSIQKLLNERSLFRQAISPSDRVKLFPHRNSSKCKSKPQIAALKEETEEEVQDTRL
Sequence of Cystic fibrosis transmembrane conductance regulator (Homo sapiens), P13569 [G551D] (P13569 whole entry G551D): as the sequence (P13569 whole entry) above, with G551D counted along it

Consider `CCOc1ccccc1CC(=O)Nc1nnc(Cc2ccc(OC)c(OC)c2)s1`, for which the Activity in assay [1] is recorded as -3.4 mV. The same compound gave a pEC50 in [2] of 6.42. `COc1ccc(Cc2nnc(NC(=O)Cc3c(F)cccc3Cl)s2)cc1OC`: the Activity in [1] is -3.1 mV. The negative logarithm of the EC50 (pEC50) in [2] is 6.24. As to `Nc1ccc([N+](=O)[O-])cc1-c1nc2ccccc2n(Cc2ccccc2)c1=O`, the negative logarithm of the EC50 (pEC50) in assay [3] was around 6.70; in assay [2], 6.86. Further, in [1], the Activity was -9.1 mV. Turning to `COc1ccc(Cc2nnc(NC(=O)Cc3cccs3)s2)cc1OC`, in assay [1], the Activity is on record as -2.5 mV. In assay [2], this compound had a negative-log EC50 (pEC50) of 6.16.

In assay [4], `CCCn1cnc2c1N=CN1C2=N[C@](C)(C(=O)O)[C@H](O)[C@@]1(C)O` showed a negative-log EC50 (pEC50) of 5.54.

Turning to `CCCn1cnc2c1N=CN1C2=N[C@](C)(C(=O)O)[C@@H](O)[C@@]1(C)O`, the negative logarithm of the EC50 (pEC50) in [4] was 5.68. For the compound `CNc1nc(Nc2ccc([N+](=O)[O-])cc2)nc(OCC(F)(F)C(F)F)n1`, the Activity in assay [1] was -10 mV. Take `COc1ccccc1CC(=O)Nc1nnc(Cc2ccc(OC)c(OC)c2)s1`: in [1], the Activity is -9.9 mV. For the same compound, the pEC50 in [2] is 6.47.

With `CC(C)Cn1c(=O)c2[nH]cnc2n(C)c1=O`, in [5], the negative logarithm of the EC50 (pEC50) is 4.00. `CCCCc1c(-c2ccc(O)cc2)[nH]c2nccnc12`: the Activity in [6] was 1.5 nM. Turning to `CC/N=C1\S/C(=C\c2ccc3c(c2)OCO3)C(=O)N1CC`, the Activity in assay [1] is listed as -2.5 mV. Further, in [2], the negative logarithm of the EC50 (pEC50) was 5.70. On to `CNc1nc(Nc2cccc([N+](=O)[O-])c2)nc(OCC(F)(F)F)n1`, for which the Activity in assay [1] is -7.4 mV. For the same compound, in assay [2], the pEC50 is 6.40. In the case of `CC(C)Cn1c(=O)n(C)c(=O)c2[nH]cnc21` [ISOBUTYLMETHYLXANTHINE], the pEC50 in assay [5] is 4.35.

For `CCN(CC)c1nc(Nc2ccccc2)nc(OC(C(F)(F)F)C(F)(F)F)n1`, the Activity in [1] is -8.5 mV. For the compound `CC(C)(C)c1cc(C(C)(C)C)c(NC(=O)c2c[nH]c3ccccc3c2=O)cc1O`, the Activity in the assay with Mus musculus was -1.8 mV. Consider `CC(C)c1ccc(NC(=O)[C@H](c2ccccc2)N(C)C(=O)Cc2c[nH]c3ccccc23)cc1`, for which the pEC50 in assay [7] is 7.15. For `O=C(c1cccs1)N1N=C(c2ccccc2)CC1c1ccccc1[N+](=O)[O-]` (stereo unspecified), the Activity in [1] is -4.1 mV. Moreover, in [2], the negative-log EC50 (pEC50) is 6.41. As to `O=c1cc(-c2ccc(O)cc2)oc2cc(O)cc(O)c12` [APIGENIN], in assay [8], the negative logarithm of the Ki (pKi) is 5.32. For the compound `Cc1cc(C)cc(/N=C2/NC(=O)/C(=C/c3ccc(O)cc3)S2)c1`, the Activity in assay [1] was -8.6 mV. Further, in [2], the negative-log EC50 (pEC50) is 6.48. Compound `CNc1nc(Nc2ccccc2)nc(OCC(F)(F)C(F)F)n1` showed a pEC50 in assay [9] of around 7.52.

`O=c1cc(-c2ccncc2)oc2c1cc(-c1ccco1)c1ccccc12`: the pKi in [8] is 5.77.

The term pEC50 denotes the negative decadic logarithm of the EC50, by convention in mol/L. What is called pKi is the negative decadic logarithm of the Ki, by convention in mol/L.
